The results in this text go back to patent US7528148B2, “Pyrazolo[3,4-B]pyridine compounds, and their use as phosphodiesterase inhibitors” (Glaxo Group Limited, priority 2002, dated 2009).

What is called ED50 is the dose that gives a 50% effect, or the effect in half of the subjects.

SMILES strings stand for the structures.

The test system of assay [1] is LPS-induced pulmonary neutrophilia in rats. As to the kind of experiment: In Vivo Assay 1: LPS-induced pulmonary neutrophilia in rats, orally administered PDE4 inhibitors. To be noted: po, rat, LPS aerosol 30 min after dosing, BAL 4 hours post LPS, read-out: neutrophilia-inhibition ED50. An excerpt:
In Vivo Assay 1. LPS-induced Pulmonary Neutrophilia in Rats: Effect of Orally Administered PDE4 Inhibitors
The purpose of this neutrophilia model is to study the potentially anti-inflammatory effects in vivo of orally administered PDE4 inhibitors on neutrophilia induced by inhalation of aerosolized lipopolysaccharide (LPS), modelling the neutrophil inflammatory component(s) of COPD. See the literature section below for scientific background.
Male Lewis rats (Charles River, Raleigh, N.C., USA) weighing approximately 300-400 grams are pretreated with either (a) test compound suspended in 0.5% methylcellulose (obtainable from Sigma-Aldrich, St Louis, Mo., USA) in water or (b) vehicle only, delivered orally in a dose volume of 10 ml/kg. Generally, dose response curves are generated using the following doses of PDE4 inhibitors: 10.0, 2.0, 0.4, 0.08 and 0.016 mg/kg. Thirty minutes following pretreatment, the rats are exposed to aerosolized LPS (Serotype E. Coli 026:B6 prepared by trichloroacetic acid extraction, obtainable from Sigma-Aldrich, St Louis, Mo., USA), generated from a nebulizer containing a 100 μg/ml LPS solution. Rats are exposed to the LPS aerosol at a rate of 4 L/min for 20 minutes. LPS exposure is carried out in a closed chamber with internal dimensions of 45 cm length×24 cm width×20 cm height. The nebulizer and exposure chamber are contained in a certified fume hood. At 4 hours-post LPS exposure the rats are euthanized by overdose with pentobarbital at 90 mg/kg, administered intraperitoneally. Bronchoalveolar lavage (BAL) is performed through a 14 gauge blunt needle into the exposed trachea. Five, 5 ml washes are performed to collect a total of 25 ml of BAL fluid. Total cell counts and leukocyte differentials are performed on BAL fluid in order to calculate neutrophil influx into the lung. Percent neutrophil inhibition at each dose (cf. vehicle) is calculated and a variable slope, sigmoidal dose-response curve is generated, usually using Prism Graph-Pad. The dose-response curve is used to calculate an ED50 value (in mg per kg of body weight) for inhibition by the PDE4 inhibitor of the LPS-induced neutrophilia
Alternative method and results: In an alternative embodiment of the procedure, a single oral dose of 10 mg/kg or 1 mg/kg of the PDE4 inhibitor (or vehicle) is administered to the rats, and percent neutrophil inhibition is calculated and reported for that specific dose.

For assay [2], the target named is T1, PDE4B (human recombinant) (Homo sapiens, UniProt Q07343).
T1 construct: made in house; host or cells: Saccharomyces cerevisiae strain GL62 (PDE-deficient)
T1 sequence (Q07343 1-564 isoform Q07343-2): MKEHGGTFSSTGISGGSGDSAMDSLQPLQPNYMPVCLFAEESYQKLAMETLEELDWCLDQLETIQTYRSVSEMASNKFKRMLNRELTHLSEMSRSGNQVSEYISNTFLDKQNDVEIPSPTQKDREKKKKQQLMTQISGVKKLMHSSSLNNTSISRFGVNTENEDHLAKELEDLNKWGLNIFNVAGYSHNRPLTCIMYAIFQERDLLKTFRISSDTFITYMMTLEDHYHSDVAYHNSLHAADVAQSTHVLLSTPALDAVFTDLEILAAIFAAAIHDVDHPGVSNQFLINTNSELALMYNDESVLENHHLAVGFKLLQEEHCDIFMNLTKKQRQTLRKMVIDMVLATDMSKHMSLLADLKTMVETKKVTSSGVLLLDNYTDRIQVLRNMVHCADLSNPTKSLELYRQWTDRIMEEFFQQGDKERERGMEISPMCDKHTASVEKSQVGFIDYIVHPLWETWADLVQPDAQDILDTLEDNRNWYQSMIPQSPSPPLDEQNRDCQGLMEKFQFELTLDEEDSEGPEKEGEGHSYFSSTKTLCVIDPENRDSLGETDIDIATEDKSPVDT
The assay is described as follows: PDE4B inhibition, radioactive SPA or IMAP fluorescence polarisation (FP) assay. The format is biochemical. To be noted: one reading or average of ca. 2-6 readings, accurate only to about ±0.5 log unit, read-out: PDE4B pIC50 (±about 0.5) (converted). An excerpt: Human recombinant PDE4B, in particular the 2B splice variant thereof (HSPDE4B2B), is disclosed in WO 94/20079 and also M. M. McLaughlin et al., “A low Km, rolipram-sensitive, cAMP-specific phosphodiesterase from human brain: cloning and expression of cDNA, biochemical characterisation of recombinant protein, and tissue distribution of mRNA”, J. Biol. Chem., 1993, 268, 6470-6476. Human recombinant PDE4B was expressed in the PDE-deficient yeast Saccharomyces cerevisiae strain GL62. 100,000×g supernatant fractions of yeast cell lysates were used for PDE4B assays and inhibitor studies.
The ability of compounds to inhibit catalytic activity at PDE4B or 4D (human recombinant), PDE3 (from bovine aorta) or PDE5 (human recombinant) or PDE6 (from bovine retina) was determined by Scintillation Proximity Assay (SPA) in 96-well format. Test compounds (preferably as a solution in DMSO, e.g. about 2 microlitre (ul) volume of DMSO solution) were preincubated at ambient temperature (room temperature, e.g. 19-23° C.) in Wallac Isoplates (code 1450-514) with PDE enzyme in 50 mM Tris-HCl buffer pH 7.5, 8.3 mM MgCl2, 1.7 mM EGTA, 0.05% (w/v) bovine serum albumin for 10-30 minutes (usually 30 minutes). The enzyme concentration was adjusted so that no more than 20% hydrolysis of the substrate defined below occurred in control wells without compound, during the incubation. For PDE3, PDE4B and PDE4D assays, [5′,8-^3H]Adenosine 3′,5′-cyclic phosphate (Amersham Pharmacia Biotech, code TRK.559; or Amersham Biosciences UK Ltd, Pollards Wood, Chalfont St Giles, Buckinghamshire HP8 4SP, UK) was added to give 0.05 uCi per well and ˜10 nM final concentration. For the PDE5 and PDE6 assay [8-^3H]Guanosine 3′,5′-cyclic phosphate (Amersham Pharmacia Biotech, code TRK.392) was added to give 0.05 uCi per well and ˜36 nM final concentration. Plates, preferably containing approx. 100 ul volume of assay mixture, were mixed on an orbital shaker for 5 minutes and incubated at ambient temperature for 1 hour. Phosphodiesterase SPA beads (Amersham Pharmacia Biotech, code RPNQ 0150) were added (˜1 mg per well) to terminate the assay. Plates were sealed and shaken and allowed to stand at ambient temperature for 35 minutes to 1 hour (preferably 35 minutes) to allow the beads to settle. Bound radioactive product was measured using a WALLAC TRILUX 1450 Microbeta scintillation counter. For inhibition curves, 10 concentrations ([…]) of each compound were assayed. Curves were analysed using ActivityBase and XLfit (ID Businesss Solutions Limited, 2 Ocean Court, Surrey Research Park, Guildford, Surrey GU2 7QB, United Kindgom) Results were expressed as pIC50 values.
The ability of compounds to inhibit catalytic activity at PDE4B (human recombinant) or PDE4D (human recombinant) was determined by IMAP Fluorescence Polarisation (FP) assay (IAP Explorer kit, available from Molecular Devices Corporation, Sunnydale, Calif., USA; Molecular Devices code: R8062) in 384-well format. The IMAP FP assay is able to measure PDE activity in an homogenous, non-radioactive assay format. The FP assay uses the ability of immobilised trivalent metal cations, coated onto nanoparticles (tiny beads), to bind the phosphate group of Fl-AMP that is produced on the hydrolysis of fluorescein-labelled (Fl) cyclic adenosine mono-phosphate (Fl-cAMP) to the non-cyclic Fl-AMP form. […] Binding of Fl-AMP product to the beads (coated with the immobilised trivalent cations) slows the rotation of the bound Fl-AMP and leads to an increase in the fluorescence polarisation ratio of parallel to perpendicular light. Inhibition of the PDE reduces/inhibits this signal increase. […]
(In general: Polarisation of emitted light reports the rotation of a fluorescent probe.)

In the case of `CCn1ncc2c(NC3CCOCC3)c(-c3nnc(C4CCOCC4)o3)cnc21` [Example 38, 1-Ethyl-N-(tetrahydro-2H-pyran-4-yl)-5-[5-(tetrahydro-2H-pyran-4-yl)-1,3,4-oxadiazol-2-yl]-1H-pyrazolo[3,4-b]pyridin-4-amine], in assay [1], the ED50 is 0.03 to 1 mg/kg. The IC50 in assay [2] was 0.794 to 31.6 nM.

As to `CCn1ncc2c(NC3CCOCC3)c(-c3nnc(CS(C)(=O)=O)o3)cnc21` [Example 23, 1-Ethyl-5-{5-[(methylsulfonyl)methyl]-1,3,4-oxadiazol-2-yl}-N-(tetrahydro-2H-pyran-4-yl)-1H-pyrazolo[3,4-b]pyridin-4-amine], the 50% effective dose (ED50) in assay [1] fell in the range of 0.03 to 1 mg/kg. Also, the IC50 in assay [2] was 7.94 nM.

`CCn1ncc2c(NC3CCOCC3)c(-c3nnc(C(C)(C)C)o3)cnc21` [Example 17, 5-(S-Tert-butyl-1,3,4-oxadiazol-2-yl)-1-ethyl-N-(tetrahydro-2H-pyran-4-yl)-1H-pyrazolo[3,4-b]pyridin-4-amine]: the ED50 in assay [1] is 0.03 to 1 mg/kg. Besides, the IC50 in assay [2] is 0.794 to 31.6 nM.

With `CCn1ncc2c(NC3CCOCC3)c(-c3nnc(CN4CCN(C)CC4)o3)cnc21` [Example 35, 1-Ethyl-5-{5-[(4-methylpiperazin-1-yl)methyl]-1,3,4-oxadiazol-2-yl}-N-(tetrahydro-2H-pyran-4-yl)-1H-pyrazolo[3,4-b]pyridin-4-amine], the ED50 in assay [1] lay in the range of 0.03 to 1 mg/kg. In addition, the IC50 in assay [2] was 31.6 nM.

`CCn1ncc2c(NC3CCOCC3)c(-c3nnc(C)o3)cnc21` [Example 14, 1-Ethyl-5-(5-methyl-1,3,4-oxadiazol-2-yl)-N-(tetrahydro-2H-pyran-4-yl)-1H-pyrazolo[3,4-b]pyridin-4-amine]: the median effective dose (ED50) in assay [1] lay within 0.03 to 1 mg/kg. Moreover, the IC50 in assay [2] is 25.1 nM.
